Data as given in PubChem BioAssay AID1671221.

Molecular target: Tyrosine-protein kinase Blk (Homo sapiens) (UniProt P51451)
Test: BLK kinase inhibitors, dose response, biochemical, Z'-LYTE FRET, direct format, recombinant human (AID 1671221)
Conditions: Z'-LYTE FRET peptide phosphorylation

Chain of Tyrosine-protein kinase Blk (Homo sapiens) (P51451 whole entry, looked up): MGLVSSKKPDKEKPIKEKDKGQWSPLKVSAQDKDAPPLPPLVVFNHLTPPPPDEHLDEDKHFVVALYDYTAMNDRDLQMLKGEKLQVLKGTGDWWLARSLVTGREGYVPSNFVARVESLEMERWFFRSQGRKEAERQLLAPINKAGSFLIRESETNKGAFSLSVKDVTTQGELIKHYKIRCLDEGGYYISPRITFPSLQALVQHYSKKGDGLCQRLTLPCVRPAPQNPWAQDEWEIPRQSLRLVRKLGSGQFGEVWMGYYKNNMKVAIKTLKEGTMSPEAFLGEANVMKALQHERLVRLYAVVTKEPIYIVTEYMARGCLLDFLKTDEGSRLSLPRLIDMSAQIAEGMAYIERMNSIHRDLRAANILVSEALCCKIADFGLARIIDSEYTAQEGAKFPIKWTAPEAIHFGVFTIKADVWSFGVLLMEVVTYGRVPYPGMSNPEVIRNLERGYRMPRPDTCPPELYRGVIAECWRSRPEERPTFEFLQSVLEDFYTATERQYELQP

IC50: 1160 nM
Structure (SMILES): COc1cc2ncnc(Nc3cccc(Cl)c3)c2cc1OC
